Measurements from patent US20150150878A1, “Methods For Inhibiting Viruses By Targeting Cathepsin-L Cleavage Sites In The Viruses' Glycoproteins” (priority 2012, published 2015).
pIC50: −log10 of the molar value. Where “and” joins values, the source holds several entries; their conditions need not be identical. Equal entries are not always repeated. Structures can show the parent of a compound that is named as a salt. Where two headings read alike, the source gives them in different places. Residues, ends and D or L forms follow the SMILES beside them. *: point of attachment. Cbz = O=C(OCc1ccccc1)*

Columns and labels:
[1] = test system: SARS-CoV pseudotyped virus; type: cell-based
[2] = test system: EBOV-GP pseudotyped virus; assay: microbe, parasite or virus in culture; type: cell-based, Ebola virus; settings: for inhibition at 10 µM: read-out: inhibition of EBOV pseudotyped virus entry; for pIC50: read-out: IC50 against EBOV pseudotyped virus
[3] = test system: SARS-CoV-S pseudotyped virus; assay: microbe, parasite or virus in culture; type: cell-based; settings: for inhibition at 10 µM: read-out: inhibition of SARS-CoV pseudotyped virus entry; for pIC50: read-out: IC50 against SARS-CoV-S pseudotyped virus
[4] = test system: 293FT cells
[5] = target: T1, cathepsin L (Homo sapiens, UniProt P07711); type: biochemical; design: human cathepsin L purified from human liver (Sigma Aldrich); purchased Sigma Aldrich; host or cells: human liver (tissue-purified)
[6] = target: T1, cathepsin L; type: biochemical; design: human cathepsin L purified from human liver (Sigma Aldrich); purchased Sigma Aldrich; host or cells: human liver (tissue-purified); remark: listed apart in the source
[7] = target: T1, cathepsin L; type: biochemical; design: human cathepsin L purified from human liver (Sigma Aldrich); purchased Sigma Aldrich; host or cells: human liver (tissue-purified); remark: listed apart in the source
[8] = target: T1, cathepsin L; type: biochemical; design: human cathepsin L purified from human liver (Sigma Aldrich); purchased Sigma Aldrich; host or cells: human liver (tissue-purified); remark: listed apart in the source
[9] = target: T1, cathepsin L; type: biochemical; design: human cathepsin L purified from human liver (Sigma Aldrich); purchased Sigma Aldrich; host or cells: human liver (tissue-purified); remark: listed apart in the source
[10] = target: T1, cathepsin L; type: biochemical
[11] = target: T1, cathepsin L; type: biochemical; remark: listed apart in the source
[12] = Severe acute respiratory syndrome coronavirus, 72 h

T1 sequence (P07711 114-333): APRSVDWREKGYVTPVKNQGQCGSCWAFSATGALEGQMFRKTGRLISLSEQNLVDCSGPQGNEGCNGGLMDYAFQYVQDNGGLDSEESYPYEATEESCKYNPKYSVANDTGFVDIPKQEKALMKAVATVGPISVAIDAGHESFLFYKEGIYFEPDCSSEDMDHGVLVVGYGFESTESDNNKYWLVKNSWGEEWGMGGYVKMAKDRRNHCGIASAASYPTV

O=C[C@H](Cc1ccc(O)cc1)NC(=O)[C@H](Cc1ccccc1)NC(=O)OCc1ccccc1 [cathepsin L inhibitor, Z-Phe-Tyr-CHO] (Cbz-Phe-Tyr-aldehyde)
inhibition of SARS-CoV pseudotyped virus entry [1]: 60% and 58%

O=c1[nH]c2ccc(S(=O)(=O)Nc3ccc(Cl)c(Cl)c3)cc2o1 [Compound 7914021, N-(3,4-dichlorophenyl)-2-oxo-2,3-dihydrobenzo[d]oxazole-6-sulfonamide]
inhibition at 10 µM ([2]; Zaire ebolavirus, 72 h): 51.5% | inhibition at 10 µM [3, 12]: 27.1% | cytotoxic effect on 293FT cells [4]: toxic | cytotoxicity ([4]; human): 20-100% | Inhibition of cleavage of SARS peptide by Cathepsin-L [5]: 71.7% | percentage inhibition against SARS peptide [5]: 85.2% | Inhibition of cleavage of Ebola peptide by Cathepsin-L [6]: 36% | percentage inhibition against Ebola peptide [6]: 83.8% | Inhibition of cleavage of Nipah peptide by Cathepsin-L [7]: 53.6% | percentage inhibition against Nipah peptide [7]: 82% | Inhibition of cleavage of Hendra peptide by Cathepsin-L [8]: 25.4% | percentage inhibition against Hendra peptide [8]: 52.2% | Inhibition of cleavage of NPY peptide by Cathepsin-L [9]: 13.1% | percentage inhibition against human Pro-NPY peptide [9]: 21.9%

N#Cc1ccc(NC(=O)Nc2ccc(Cl)cc2)cc1 [Compound 7910528, 1-(4-chlorophenyl)-3-(4-cyanophenyl)urea]
inhibition at 10 µM ([2]; Zaire ebolavirus, 72 h): 23.3% | inhibition at 10 µM [3, 12]: 30.3% | Inhibition of cleavage of SARS peptide by Cathepsin-L [5]: 56.5% | percentage inhibition against SARS peptide [5]: 56.5% | Inhibition of cleavage of Ebola peptide by Cathepsin-L [6]: 33.4% | percentage inhibition against Ebola peptide [6]: 35% | Inhibition of cleavage of Nipah peptide by Cathepsin-L [7]: 57.8% | percentage inhibition against Nipah peptide [7]: 57.8% | Inhibition of cleavage of Hendra peptide by Cathepsin-L [8]: 12.1% | percentage inhibition against Hendra peptide [8]: 12.1% | Inhibition of cleavage of NPY peptide by Cathepsin-L [9]: 6.5% | percentage inhibition against human Pro-NPY peptide [9]: 6.5%

COC(=O)CN(C#N)c1nc(NC(C)C)nc(NC(C)C)n1 [Compound 5705213, methyl 2-(N-(4,6-bis(isopropylamino)-1,3,5-triazin-2-yl)cyanamido)acetate]
pIC50 ([2]; Zaire ebolavirus, 72 h): 4.82 | inhibition at 10 µM ([2]; Zaire ebolavirus, 72 h): 39.8% | pIC50 [3, 12]: 5.05 | inhibition at 10 µM [3, 12]: 64.7% | inhibition of Cat L mediated cleavage of SARS-CoV-S-flag protein [10]: dose dependent inhibition | inhibition of SARS-CoV pseudotyped virus entry [1]: 50% and 60% | change of Vmax in presence of the inhibitor [11]: decrease | mechanism of inhibition [11]: mixed inhibitor | cell viability ([4]; human): over 80% | Inhibition of cleavage of SARS peptide by Cathepsin-L [5]: 79.8% | percentage inhibition against SARS peptide [5]: 90.1% | Inhibition of cleavage of Ebola peptide by Cathepsin-L [6]: 42% | percentage inhibition against Ebola peptide [6]: 81.3% | Inhibition of cleavage of Nipah peptide by Cathepsin-L [7]: 76.3% | percentage inhibition against Nipah peptide [7]: 90.7% | Inhibition of cleavage of Hendra peptide by Cathepsin-L [8]: 84.3% | percentage inhibition against Hendra peptide [8]: 94.2% | Inhibition of cleavage of NPY peptide by Cathepsin-L [9]: 18% | percentage inhibition against human Pro-NPY peptide [9]: 20%

O=C(Nc1cccc(C(F)(F)F)c1)Nc1ccc(Cl)c(Cl)c1 [Compound 5182554, 1-(3,4-dichlorophenyl)-3-(3-(trifluoromethyl)phenyl)urea]
inhibition at 10 µM ([2]; Zaire ebolavirus, 72 h): 60.5% | inhibition at 10 µM [3, 12]: 49.3% | cytotoxic effect on 293FT cells [4]: toxic | cytotoxicity ([4]; human): 20-100% | Inhibition of cleavage of SARS peptide by Cathepsin-L [5]: 78.1% | percentage inhibition against SARS peptide [5]: 72.6% | Inhibition of cleavage of Ebola peptide by Cathepsin-L [6]: 31% | percentage inhibition against Ebola peptide [6]: 77% | Inhibition of cleavage of Nipah peptide by Cathepsin-L [7]: 44% | percentage inhibition against Nipah peptide [7]: 56.5% | Inhibition of cleavage of Hendra peptide by Cathepsin-L [8]: 49.4% | percentage inhibition against Hendra peptide [8]: 50.9% | Inhibition of cleavage of NPY peptide by Cathepsin-L [9]: 7.4% | percentage inhibition against human Pro-NPY peptide [9]: 14.8%

CN(C)C(=O)COC(=O)Cc1ccc(OC(=O)c2ccc(NC(=N)N)cc2)cc1 [protease inhibitor, Camostat mesylate]
inhibition of SARS-CoV pseudotyped virus entry [1]: 70%

CCNc1nc(NC(C)(C)C)nc(N(C#N)CC(=O)OC)n1 [Compound 7402683, methyl 2-(N-(4-(tert-butylamino)-6-(ethylamino)-1,3,5-triazin-2-yl)cyanamido)acetate]
inhibition of EBOV pseudotyped virus entry ([2]; 10 µM): 53.3% | pIC50 [2]: 5.00 | inhibition of SARS-CoV pseudotyped virus entry ([3]; 10 µM): 68.3% | pIC50 [3]: 5.22 | inhibition of Cat L mediated cleavage of SARS-CoV-S-flag protein [10]: dose dependent inhibition | cytotoxic effect on 293FT cells [4]: no significant cytotoxicity
